From PubChem BioAssay AID330 (DTP/NCI, 2004)
Values joined by “and” are separate entries in the source; they are usually repeats but may differ in a detail not shown here. Equal entries are not always repeated. Toxic doses and inconclusive results are not listed.

Test system: P388 leukemia ip, CD2F1 mice, survival T/C
Experiment: NCI In Vivo Anticancer Drug Screen. Data for tumor model P388 Leukemia (intraperitoneal) in CD2F1 (CDF1) mice
Conditions: endpoint: median survival time, higher = longer survival
Outline: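 Mice carrying the transplanted tumor received test compound or vehicle. Survival was recorded in each group, and the value is the treated-group measurement divided by that of the vehicle-treated control group.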

[1] = dose: 100.0 mg/kg/injection, schedule: Q01DX005 (ip), vehicle: Klucel (hydroxypropylcellulose) (HPC)
[2] = dose: 200.0 mg/kg/injection, schedule: Q01DX005 (ip), vehicle: Klucel (hydroxypropylcellulose) (HPC)
[3] = dose: 50.0 mg/kg/injection, schedule: Q01DX009 (ip), vehicle: saline
[4] = dose: 50.0 mg/kg/injection, schedule: Q01DX009 (ip), vehicle: Klucel (hydroxypropylcellulose) (HPC)
[5] = dose: 100.0 mg/kg/injection, schedule: Q01DX009 (ip), vehicle: Klucel (hydroxypropylcellulose) (HPC)
[6] = dose: 200.0 mg/kg/injection, schedule: Q01DX009 (ip), vehicle: Klucel (hydroxypropylcellulose) (HPC)
[7] = dose: 50.0 mg/kg/injection, schedule: Q01DX005 (ip), vehicle: Klucel (hydroxypropylcellulose) (HPC)
[8] = dose: 50.0 mg/kg/injection, schedule: Q01DX005 (ip), vehicle: saline with Tween-80
[9] = dose: 100.0 mg/kg/injection, schedule: Q01DX005 (ip), vehicle: saline with Tween-80
[10] = dose: 200.0 mg/kg/injection, schedule: Q01DX005 (ip), vehicle: saline with Tween-80

## CCOC(=O)c1c(C)c2c(n1Cc1ccccc1)CCCC2=O
dose: 100.0 mg/kg/injection, schedule: Q04DX003 (ip), vehicle: Klucel (hydroxypropylcellulose) (HPC)
  T/C: 99 % of control
dose: 200.0 mg/kg/injection, schedule: Q04DX003 (ip), vehicle: Klucel (hydroxypropylcellulose) (HPC)
  T/C: 97 % of control
dose: 400.0 mg/kg/injection, schedule: Q04DX003 (ip), vehicle: Klucel (hydroxypropylcellulose) (HPC)
  T/C: 98 % of control

## CN1CCC(/C=C/c2ccc(Cl)c(Cl)c2)CN1 (stereo unspecified) (tested in a mixture with another compound)
dose: 25.0 mg/kg/injection, schedule: Q01DX001 (ip), vehicle: saline
  T/C: 100 % of control and 95 % of control
dose: 50.0 mg/kg/injection, schedule: Q01DX001 (ip), vehicle: saline
  T/C: 100 % of control
dose: 100.0 mg/kg/injection, schedule: Q01DX001 (ip), vehicle: saline
  T/C: 104 % of control and 93 % of control
dose: 100.0 mg/kg/injection, schedule: Q01DX001 (ip), vehicle: suspension in saline
  T/C: 116 % of control

## CC1CCCC(C)N1C(=O)c1ccccc1 (stereo unspecified)
dose: 60.0 mg/kg/injection, schedule: Q01DX005 (ip), vehicle: saline with Tween-80
  T/C: 98 % of control
dose: 120.0 mg/kg/injection, schedule: Q01DX005 (ip), vehicle: saline with Tween-80
  T/C: 97 % of control
dose: 240.0 mg/kg/injection, schedule: Q01DX005 (ip), vehicle: saline with Tween-80
  T/C: 96 % of control

## CC1=N/C(=C\c2ccccc2)C(=O)N1c1ccccc1
[1]
  T/C: 98 % of control
[2]
  T/C: 104 % of control
dose: 400.0 mg/kg/injection, schedule: Q01DX005 (ip), vehicle: Klucel (hydroxypropylcellulose) (HPC)
  T/C: 105 % of control

## C[CH2][Sn]([Br])([CH2]C)[c]1ccccc1CN(C)C
dose: 12.5 mg/kg/injection, schedule: Q01DX009 (ip), vehicle: saline
  T/C: 100 % of control and 114 % of control
dose: 25.0 mg/kg/injection, schedule: Q01DX009 (ip), vehicle: saline
  T/C: 100 % of control and 114 % of control
[3]
  T/C: 117 % of control and 124 % of control

## O=[N+]([O-])c1ccc(-c2csc(NCC3CCCO3)n2)cc1 (stereo unspecified)
[4]
  T/C: 101 % of control
[5]
  T/C: 100 % of control
[6]
  T/C: 100 % of control

## O=C1c2ccccc2C(Br)CCC1Br (stereo unspecified)
dose: 100.0 mg/kg/injection, schedule: Q01DX009 (ip), vehicle: distilled water + Tween-80 + alcohol
  T/C: 115 % of control
dose: 200.0 mg/kg/injection, schedule: Q01DX009 (ip), vehicle: distilled water + Tween-80 + alcohol
  T/C: 115 % of control
dose: 400.0 mg/kg/injection, schedule: Q01DX009 (ip), vehicle: distilled water + Tween-80 + alcohol
  T/C: 113 % of control

## Cc1ccccc1N=c1c2cnn(C)c2ncn1-c1ccccc1C
[7]
  T/C: 96 % of control
[1]
  T/C: 96 % of control
[2]
  T/C: 93 % of control

## Nc1ncnc2c1ncn2CC(O)CN(CCO)CCO (stereo unspecified) (tested in a mixture with another compound)
dose: 60.0 mg/kg/injection, schedule: Q01DX005 (ip), vehicle: saline
  T/C: 93 % of control
dose: 120.0 mg/kg/injection, schedule: Q01DX005 (ip), vehicle: saline
  T/C: 95 % of control
dose: 240.0 mg/kg/injection, schedule: Q01DX005 (ip), vehicle: saline
  T/C: 94 % of control

## CCOC(=O)c1c(O)cc(C)[nH]c1=O
dose: 50.0 mg/kg/injection, schedule: Q01DX009 (ip), vehicle: saline with Tween-80
  T/C: 103 % of control and 96 % of control
dose: 100.0 mg/kg/injection, schedule: Q01DX009 (ip), vehicle: saline with Tween-80
  T/C: 100 % of control and 94 % of control and 98 % of control
dose: 200.0 mg/kg/injection, schedule: Q01DX009 (ip), vehicle: saline with Tween-80
  T/C: 103 % of control and 106 % of control and 93 % of control
dose: 400.0 mg/kg/injection, schedule: Q01DX009 (ip), vehicle: saline with Tween-80
  T/C: 104 % of control and 106 % of control and 122 % of control

## Oc1cc(O)cc(/C=C/c2ccccc2)c1
dose: 50.0 mg/kg/injection, schedule: Q01DX005 (ip), vehicle: water
  T/C: 107 % of control
dose: 100.0 mg/kg/injection, schedule: Q01DX005 (ip), vehicle: water
  T/C: 101 % of control

## O=S1(=O)CC23C=CC=CC2(CCCC3)C1Cl (stereo unspecified)
dose: 12.5 mg/kg/injection, schedule: Q01DX005 (ip), vehicle: Klucel (hydroxypropylcellulose) (HPC)
  T/C: 93 % of control
dose: 25.0 mg/kg/injection, schedule: Q01DX005 (ip), vehicle: Klucel (hydroxypropylcellulose) (HPC)
  T/C: 89 % of control
[7]
  T/C: 91 % of control

## O=c1/c(=C/c2ccccc2)sc2nc(-c3ccccc3)nn12
dose: 12.5 mg/kg/injection, schedule: Q01DX009 (ip), vehicle: Klucel (hydroxypropylcellulose) (HPC)
  T/C: 87 % of control
dose: 25.0 mg/kg/injection, schedule: Q01DX009 (ip), vehicle: Klucel (hydroxypropylcellulose) (HPC)
  T/C: 88 % of control
[4]
  T/C: 89 % of control and 91 % of control
[5]
  T/C: 107 % of control
[6]
  T/C: 107 % of control

## O=S(O)Cc1ccccc1CSSSCc1ccccc1CS(=O)O
dose: 25.0 mg/kg/injection, schedule: Q01DX005 (ip), vehicle: saline
  T/C: 114 % of control
dose: 50.0 mg/kg/injection, schedule: Q01DX005 (ip), vehicle: saline
  T/C: 114 % of control
dose: 100.0 mg/kg/injection, schedule: Q01DX005 (ip), vehicle: saline
  T/C: 114 % of control
dose: 200.0 mg/kg/injection, schedule: Q01DX005 (ip), vehicle: saline
  T/C: 112 % of control

## COc1ccc(C(=O)c2c(OC)cccc2C(=O)O)cc1
[7]
  T/C: 105 % of control
[1]
  T/C: 105 % of control
[2]
  T/C: 97 % of control

## CCC1(O)CC2CN(CCc3c([nH]c4ccccc34)C(C(=O)OC)(c3cc4c(cc3OC)N(C)C3C(O)(C(=O)OC)CC5(CC)C=CCN6CCC43C65)C2)C1 (stereo unspecified)
dose: 1.0 mg/kg/injection, schedule: Q01DX001 (ip), vehicle: saline
  T/C: 120 % of control and 122 % of control
dose: 4.0 mg/kg/injection, schedule: Q01DX001 (ip), vehicle: saline
  T/C: 150 % of control
dose: 8.0 mg/kg/injection, schedule: Q01DX001 (ip), vehicle: saline
  T/C: 155 % of control
dose: 16.0 mg/kg/injection, schedule: Q01DX001 (ip), vehicle: saline
  T/C: 165 % of control and 175 % of control
dose: 32.0 mg/kg/injection, schedule: Q01DX001 (ip), vehicle: saline
  T/C: 195 % of control and 205 % of control

## CC(C)C(CC(=O)O)C(=O)O (stereo unspecified)
[8]
  T/C: 100 % of control
[9]
  T/C: 91 % of control
[10]
  T/C: 104 % of control

## C/C(=N\NC(N)=S)c1ccccc1O
[4]
  T/C: 99 % of control
[5]
  T/C: 111 % of control
[6]
  T/C: 102 % of control

## Cc1c(-c2cnccn2)ssc1=S
[8]
  T/C: 103 % of control
[9]
  T/C: 99 % of control
[10]
  T/C: 103 % of control

## C=C1SC(=Nc2c(C)cc(C)cc2C)N(C(=O)c2sc3ccccc3c2Cl)C12CCCCC2
dose: 50.0 mg/kg/injection, schedule: Q01DX009 (ip), vehicle: suspension in saline
  T/C: 96 % of control
dose: 100.0 mg/kg/injection, schedule: Q01DX009 (ip), vehicle: suspension in saline
  T/C: 103 % of control
dose: 200.0 mg/kg/injection, schedule: Q01DX009 (ip), vehicle: suspension in saline
  T/C: 91 % of control

## CCOC(=O)/C(=C\c1cccc(OC)c1OC)CC(=O)O
dose: 25.0 mg/kg/injection, schedule: Q01DX009 (ip), vehicle: other
  T/C: 102 % of control
dose: 50.0 mg/kg/injection, schedule: Q01DX009 (ip), vehicle: other
  T/C: 107 % of control
dose: 100.0 mg/kg/injection, schedule: Q01DX009 (ip), vehicle: other
  T/C: 98 % of control
dose: 200.0 mg/kg/injection, schedule: Q01DX009 (ip), vehicle: other
  T/C: 112 % of control
dose: 400.0 mg/kg/injection, schedule: Q01DX009 (ip), vehicle: other
  T/C: 111 % of control

## COc1cc(C)c(O)c(C/C=C(\C)CC2=C[C@@]3(C)CCC[C@@]3(C)[C@]3(CC(O)C(C)(C)O3)O2)c1 (stereo partly specified)
dose: 20.0 mg/kg/injection, schedule: Q01DX005 (ip), vehicle: saline with Tween-80
  T/C: 98 % of control
dose: 40.0 mg/kg/injection, schedule: Q01DX005 (ip), vehicle: saline with Tween-80
  T/C: 100 % of control
dose: 80.0 mg/kg/injection, schedule: Q01DX005 (ip), vehicle: saline with Tween-80
  T/C: 119 % of control

## Cc1ccccc1C(=O)Nc1ccccc1-c1ccccc1N
dose: 25.0 mg/kg/injection, schedule: Q04DX003 (ip), vehicle: saline
  T/C: 95 % of control
dose: 50.0 mg/kg/injection, schedule: Q04DX003 (ip), vehicle: saline
  T/C: 99 % of control
dose: 100.0 mg/kg/injection, schedule: Q04DX003 (ip), vehicle: saline
  T/C: 90 % of control and 91 % of control

## O=C1C(C(=Nc2cccc(Cl)c2)c2ccccc2)=C(O)c2ccccc21
dose: 25.0 mg/kg/injection, schedule: Q04DX002 (ip), vehicle: saline with Tween-80
  T/C: 93 % of control
dose: 50.0 mg/kg/injection, schedule: Q04DX002 (ip), vehicle: saline with Tween-80
  T/C: 95 % of control

## COC(=O)c1cc(NC(=O)O/N=C/c2cccnc2)cc(C(=O)OC)c1
[3]
  T/C: 103 % of control
dose: 100.0 mg/kg/injection, schedule: Q01DX009 (ip), vehicle: saline
  T/C: 91 % of control
